From patent US20170305857A1, “N-ACYLPIPERIDINE ETHER TROPOMYOSIN-RELATED KINASE INHIBITORS” (Pfizer Limited, priority 2014, published 2017)

Target: T1, recombinant His-tagged cytoplasmic domains of TRKA receptor (NTRK1, PV3144, aa 441-796) (Homo sapiens, UniProt P04629)
T1 construct: aa 441-796; His; purchased Invitrogen PV3144
Test: Isolated TRK enzyme assay (HTRF KinEASE-TK, PV3144 TrkA enzyme assay)
Assay type: biochemical
Settings: 4 nM enzyme, 40 uM ATP, 35 min, arithmetic mean where more than one reading
Outline: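 Enzyme and ATP were preincubated with compound for 20 min at room temperature in buffer with 10 mM MgCl and 2 mM DTT. TK-substrate-Biotin was then added (1 uM final) and the reaction run for an enzyme-specific optimized time. Phosphorylation was read by HTRF, and IC50 values came from sigmoid fits of percent inhibition normalized to plate controls, averaged over replicate readings.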

T1 sequence (P04629 441-796): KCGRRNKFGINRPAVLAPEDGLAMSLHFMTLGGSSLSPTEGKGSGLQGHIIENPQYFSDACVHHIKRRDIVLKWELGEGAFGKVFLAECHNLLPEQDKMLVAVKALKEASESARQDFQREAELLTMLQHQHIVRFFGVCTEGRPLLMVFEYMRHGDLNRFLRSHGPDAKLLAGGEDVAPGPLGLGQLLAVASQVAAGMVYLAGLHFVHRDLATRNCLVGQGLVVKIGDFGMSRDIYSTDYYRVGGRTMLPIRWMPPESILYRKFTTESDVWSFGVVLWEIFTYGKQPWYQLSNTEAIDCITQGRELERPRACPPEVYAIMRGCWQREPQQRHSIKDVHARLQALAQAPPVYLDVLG

Question: With `NC(=O)c1cc(-c2cn[nH]c2)ncc1O[C@@H]1CCN(C(=O)Cc2ccc(OC3CC3)cn2)C[C@@H]1F` [Example 87, 5-{[(3S,4R)-1-{[5-(cyclopropyloxy)pyridin-2-yl]acetyl}-3-fluoropiperidin-4-yl]oxy}-2-(1H-pyrazol-4-yl)pyridine-4-carboxamide] as the molecule, how does the IC50 read?
Answer: The IC50 was 6.8 nM.

Question: Which IC50 does the source give for `NC(=O)c1cc(-c2cn[nH]c2)ncc1O[C@H]1CCN(C(=O)Cc2ccc(OC(F)(F)F)cc2)C[C@H]1F` [Example 88, 5-{[(3R,4S)-3-fluoro-1-{[4-(trifluoromethoxy)phenyl]acetyl}piperidin-4-yl]oxy}-2-(1H-pyrazol-4-yl)pyridine-4-carboxamide] here?
Answer: The IC50 was 1.5 nM.

Question: With `NC(=O)c1cc(-c2cnn(CCO)c2)cnc1OC1CCN(C(=O)Cc2ccc(OC(F)(F)F)cc2)CC1` [Example 89, 5-[1-(2-hydroxyethyl)-1H-pyrazol-4-yl]-2-[(1-{[4-(trifluoromethoxy)phenyl]acetyl}piperidin-4-yl)oxy]pyridine-3-carboxamide] as the molecule, how does the IC50 read?
Answer: The IC50 was 5.4 nM.

Question: With `NC(=O)c1cc(-c2ccn(CCO)n2)ccc1OC1CCN(C(=O)Cc2ccc(OC(F)(F)F)cc2)CC1` [Example 90, 5-[1-(2-hydroxyethyl)-1H-pyrazol-3-yl]-2-[(1-{[4-{trifluoromethoxy)phenyl]acetyl}piperidin-4-yl)oxy]benzamide] as the molecule, how does the IC50 read?
Answer: Its IC50 is 4.2 nM.

Question: With `NC(=O)c1cc(-c2ccc(C(=O)O)cc2)cnc1OC1CCN(C(=O)Cc2ccc(OC(F)(F)F)cc2)CC1` [Example 95, 4-{5-carbamoyl-6-[(1-{[4-(trifluoromethoxy)phenyl]acetyl}piperidin-4-yl)oxy]pyridin-3-yl}benzoic acid] as the molecule, how does the IC50 read?
Answer: The IC50 was 5.9 nM.

Question: Which IC50 does the source give for `COCc1ccc(-c2cnc(OC3CCN(C(=O)Cc4ccc(OC(F)(F)F)cc4)CC3)c(C(N)=O)c2)cc1` [Example 97, 5-[4-(methoxymethyl)phenyl]-2-[(1-{[4-(trifluoromethoxy)phenyl]acetyl}piperidin-4-yl)oxy]pyridine-3-carboxamide] here?
Answer: The IC50 was 7.4 nM.

Question: With `NCc1ccc(-c2cnc(OC3CCN(C(=O)Cc4ccc(OC(F)(F)F)cc4)CC3)c(C(N)=O)c2)cc1` [Example 98, 5-[4-(aminomethyl)phenyl]-2-[(1-{[4-(trifluoromethoxy)phenyl]acetyl}piperidin-4-yl)oxy]pyridine-3-carboxamide] as the molecule, how does the IC50 read?
Answer: Its IC50 is 10.5 nM.

Question: `Cc1nc[nH]c1-c1ccc(OC2CCN(C(=O)Cc3ccc(OC(F)(F)F)cc3)CC2)c(C(N)=O)c1` [Example 99, 5-(4-methyl-1H-imidazol-5-yl)-2-[(1-{[4-(trifluoromethoxy)phenyl]acetyl}piperidin-4-yl)oxy]benzamide] was tested. Which IC50 did it give?
Answer: The IC50 was 7.7 nM.

Question: How did the IC50 turn out when `NC(=O)c1cc(-c2nccs2)ccc1OC1CCN(C(=O)Cc2ccc(OC(F)(F)F)cc2)CC1` [Example 100, 5-(1,3-thiazol-2-yl)-2-[(1-{[4-(trifluoromethoxy)phenyl]acetyl}piperidin-4-yl)oxy]benzamide] was run?
Answer: The IC50 was 8.5 nM.

Question: How did the IC50 turn out when `NC(=O)c1cc(-c2cscn2)ccc1OC1CCN(C(=O)Cc2ccc(OC(F)(F)F)cc2)CC1` [Example 101, 5-(1,3-thiazol-4-yl)-2-[(1-{[4-(trifluoromethoxy)phenyl]acetyl}piperidin-4-yl)oxy]benzamide] was run?
Answer: Its IC50 is 9.4 nM.

Question: Which IC50 does the source give for `Cc1n[nH]c(C)c1-c1ccc(OC2CCN(C(=O)Cc3ccc(OC(F)(F)F)cc3)CC2)c(C(N)=O)c1` [Example 102, 5-(3,5-dimethyl-1H-pyrazol-4-yl)-2-[(1-{[4-(trifluoromethoxy)phenyl]acetyl}piperidin-4-yl)oxy]benzamide] here?
Answer: The IC50 was 10.1 nM.

Question: How did the IC50 turn out when `NC(=O)c1cc(-c2ccc(N)nc2)ccc1OC1CCN(C(=O)Cc2ccc(OC(F)(F)F)cc2)CC1` [Example 104, 5-(6-aminopyridin-3-yl)-2-[(1-{[4-(trifluoromethoxy)phenyl]acetyl}piperidin-4-yl)oxy]benzamide] was run?
Answer: Its IC50 is 4 nM.

Question: Which IC50 does the source give for `NCc1ccc(-c2ccc(OC3CCN(C(=O)Cc4ccc(OC(F)(F)F)cc4)CC3)c(C(N)=O)c2)cc1` [Example 105, 4′-(aminomethyl)-4-[(1-{[4-(trifluoromethoxy)phenyl]acetyl}piperidin-4-yl)oxy]biphenyl-3-carboxamide] here?
Answer: Its IC50 is 5 nM.

Question: With `NC(=O)c1cc(-c2cccc(CO)c2)ccc1OC1CCN(C(=O)Cc2ccc(OC(F)(F)F)cc2)CC1` [Example 106, 3′-(hydroxymethyl)-4-[(1-{[4-(trifluoromethoxy)phenyl]acetyl}piperidin-4-yl)oxy]biphenyl-3-carboxamide] as the molecule, how does the IC50 read?
Answer: The IC50 was 5.3 nM.

Question: Which IC50 does the source give for `Cn1cc(-c2ccc(OC3CCN(C(=O)Cc4ccc(C(C)(C)C)cc4)CC3)c(C(N)=O)c2)cn1` [Example 107, 2-({1-[(4-tert-butylphenyl)acetyl]piperidin-4-yl}oxy)-5-(1-methyl-1H-pyrazol-4-yl)benzamide] here?
Answer: The IC50 was 9.8 nM.

Question: Which IC50 does the source give for `Cn1cc(-c2ccc(OC3CCN(C(=O)Cc4ccc(SC(F)(F)F)cc4)CC3)c(C(N)=O)c2)cn1` [Example 108, 5-(1-methyl-1H-pyrazol-4-yl)-2-{[1-({4-[(trifluoromethyl)sulfanyl]phenyl}acetyl)piperidin-4-yl]oxy}benzamide] here?
Answer: Its IC50 is 2.7 nM.

Question: For `CC(C)c1ccc(CC(=O)N2CCC(Oc3ccc(-c4cnn(C)c4)cc3C(N)=O)CC2)cc1` [Example 109, 5-(1-methyl-1H-pyrazol-4-yl)-2-[(1-{[4-(propan-2-yl)phenyl]acetyl}piperidin-4-yl)oxy]benzamide], which IC50 is on record?
Answer: The IC50 was 7.1 nM.

Question: Which IC50 does the source give for `Cn1cc(-c2ccc(OC3CCN(C(=O)Cc4ccc(OC(F)(F)F)c(Cl)c4)CC3)c(C(N)=O)c2)cn1` [Example 110, 2-[(1-{[3-chloro-4-(trifluoromethoxy)phenyl]acetyl}piperidin-4-yl)oxy]-5-(1-methyl-1H-pyrazol-4-yl)benzamide] here?
Answer: Its IC50 is 110 nM.

Question: Which IC50 does the source give for `Cn1cc(-c2ccc(OC3CCN(C(=O)Cc4ccc(OC(F)(F)F)c(F)c4)CC3)c(C(N)=O)c2)cn1` [Example 111, 2-[(1-{[3-fluoro-4-(trifluoromethoxy)phenyl]acetyl}piperidin-4-yl)oxy]-5-(1-methyl-1H-pyrazol-4-yl)benzamide] here?
Answer: Its IC50 is 4.5 nM.

Question: With `NC(=O)c1cc(-c2cn(CCO)cn2)ccc1OC1CCN(C(=O)Cc2ccc(OC(F)(F)F)cc2)CC1` [Example 115, 5-[1-(2-hydroxyethyl)-1H-imidazol-4-yl]-2-[(1-{[4-(trifluoromethoxy)phenyl]acetyl}piperidin-4-yl)oxy]benzamide] as the molecule, how does the IC50 read?
Answer: The IC50 was 4.4 nM.

Question: How did the IC50 turn out when `NC(=O)c1cc(-c2cn(CCO)cn2)cnc1OC1CCN(C(=O)Cc2ccc(OC(F)(F)F)cc2)CC1` [Example 116, 5-[1-(2-hydroxyethyl)-1H-imidazol-4-yl]-2-[(1-{[4-(trifluoromethoxy)phenyl]acetyl}piperidin-4-yl)oxy]pyridine-3-carboxamide] was run?
Answer: The IC50 was 8.1 nM.

Question: Which IC50 does the source give for `NC(=O)c1cc(-c2c[nH]c(C3(F)COC3)n2)ccc1OC1CCN(C(=O)Cc2ccc(OC(F)(F)F)cc2)CC1` [Example 117, 5-[2-(3-fluorooxetan-3-yl)-1H-imidazol-4-yl]-2-[(1-{[4-(trifluoromethoxy)phenyl]acetyl}piperidin-4-yl)oxy]benzamide] here?
Answer: The IC50 was 10.8 nM.

Question: With `Cc1nc(-c2cnc(O[C@H]3CCN(C(=O)Cc4ccc(OC(F)(F)F)cc4)C[C@H]3F)c(C(N)=O)c2)c[nH]1` [Example 118, 2-{[(3R,4S)-3-fluoro-1-{[4-(trifluoromethoxy)phenyl]acetyl}piperidin-4-yl]oxy}-5-(2-methyl-1H-imidazol-4-yl)pyridine-3-carboxamide] as the molecule, how does the IC50 read?
Answer: Its IC50 is 1.1 nM.
